Data from paper PMC3427316 (PLoS ONE, 2012).

Key:
[1] = target: NA of D0 isolate A/Paris/7976/2010 (223I 100%, 275H 100%) (Influenza A virus, UniProt V9TJZ0); assay type: biochemical, influenza A(H1N1)pdm09 virus; settings: read-out: Ki +/− SD
H1N1pdm09 virus = settings: human, in vivo

| SMILES | Ki [1] [nM] | impact on viral shedding (H1N1pdm09 virus) | symptoms (H1N1pdm09 virus) |
| --- | --- | --- | --- |
| CCC(CC)O[C@@H]1C=C(C(=O)O)C[C@H](N)[C@H]1NC(C)=O [OC, oseltamivir carboxylate] | 0.28 | – | – |
| CC(=O)N[C@H]1[C@H]([C@H](O)[C@H](O)CO)OC(C(=O)O)=C[C@@H]1N=C(N)N [ZAN, zanamivir] | – | no impact | did not improve |
